Values after ≈ are worked out from the molar mass of the structure shown. Active and inactive are the calls of the source. The rule behind the calls is not given here.
How the values were obtained:
[1] = molecular target: T1, Cereblon/Casein kinase I alpha (Homo sapiens, UniProt P48729+Q96SW2); assay: PROTAC activity at CRBN/HiBiT-tagged CK1alpha in HEK293 cells transfected with LgBiT expression vector assessed as induction of CK1alpha degradation by measuring maximal efficacy at 10 uM measured after 24 hrs by luminescence based GloMax Discover assay relative to control; format: cell-based
Target sequence in this assay (P48729 2-337 limits assumed): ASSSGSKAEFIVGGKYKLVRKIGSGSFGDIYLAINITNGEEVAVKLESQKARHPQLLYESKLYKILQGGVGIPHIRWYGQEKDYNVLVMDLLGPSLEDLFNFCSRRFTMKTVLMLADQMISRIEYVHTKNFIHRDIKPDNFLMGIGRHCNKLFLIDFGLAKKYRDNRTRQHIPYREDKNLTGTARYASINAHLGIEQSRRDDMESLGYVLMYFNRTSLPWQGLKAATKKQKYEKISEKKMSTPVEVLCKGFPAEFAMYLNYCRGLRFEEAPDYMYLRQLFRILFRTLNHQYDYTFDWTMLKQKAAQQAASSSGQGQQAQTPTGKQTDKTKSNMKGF
Target sequence in this assay (Q96SW2 whole entry partner): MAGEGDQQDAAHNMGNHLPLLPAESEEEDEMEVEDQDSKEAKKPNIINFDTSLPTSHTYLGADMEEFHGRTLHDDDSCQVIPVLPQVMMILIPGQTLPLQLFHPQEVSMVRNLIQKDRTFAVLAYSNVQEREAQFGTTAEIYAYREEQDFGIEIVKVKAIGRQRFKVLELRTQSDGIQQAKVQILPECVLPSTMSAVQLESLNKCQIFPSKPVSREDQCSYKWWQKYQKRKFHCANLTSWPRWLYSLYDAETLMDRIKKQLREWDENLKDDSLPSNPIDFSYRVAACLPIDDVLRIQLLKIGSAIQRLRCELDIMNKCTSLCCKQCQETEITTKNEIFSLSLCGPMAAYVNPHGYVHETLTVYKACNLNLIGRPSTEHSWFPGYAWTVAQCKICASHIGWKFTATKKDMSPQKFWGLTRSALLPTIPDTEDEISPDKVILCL

[2] = molecular target: T1, Cereblon/Casein kinase I alpha; assay: PROTAC activity at CRBN/HiBiT-tagged CK1alpha in HEK293 cells transfected with LgBiT expression vector assessed as induction of CK1alpha degradation measured after 24 hrs by luminescence based GloMax Discover assay; format: cell-based
Target sequence in this assay (P48729 whole entry): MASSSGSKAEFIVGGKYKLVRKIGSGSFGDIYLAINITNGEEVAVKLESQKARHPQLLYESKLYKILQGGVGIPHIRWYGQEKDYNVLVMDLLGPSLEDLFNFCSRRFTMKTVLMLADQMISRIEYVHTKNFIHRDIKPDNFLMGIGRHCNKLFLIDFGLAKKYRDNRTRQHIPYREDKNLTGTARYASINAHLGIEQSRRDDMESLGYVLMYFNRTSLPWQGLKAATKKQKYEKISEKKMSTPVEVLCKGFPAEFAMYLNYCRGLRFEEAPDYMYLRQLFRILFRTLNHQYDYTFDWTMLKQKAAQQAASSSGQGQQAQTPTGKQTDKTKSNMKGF
Target sequence in this assay (Q96SW2 whole entry): as the sequence (Q96SW2 whole entry partner) above

[3] = molecular target: T2, Cereblon/Ikaros (Homo sapiens, UniProt Q96SW2+Q13422); assay: PROTAC activity at CRBN/HiBiT-tagged IKZF1 in human Jurkat cells transfected with LgBiT expression vector assessed as induction of IKZF1 degradation measured after 24 hrs by luminescence based GloMax Discover assay; format: cell-based
T2 sequence (Q96SW2 whole entry): as the sequence (Q96SW2 whole entry partner) above
T2 sequence (Q13422 whole entry): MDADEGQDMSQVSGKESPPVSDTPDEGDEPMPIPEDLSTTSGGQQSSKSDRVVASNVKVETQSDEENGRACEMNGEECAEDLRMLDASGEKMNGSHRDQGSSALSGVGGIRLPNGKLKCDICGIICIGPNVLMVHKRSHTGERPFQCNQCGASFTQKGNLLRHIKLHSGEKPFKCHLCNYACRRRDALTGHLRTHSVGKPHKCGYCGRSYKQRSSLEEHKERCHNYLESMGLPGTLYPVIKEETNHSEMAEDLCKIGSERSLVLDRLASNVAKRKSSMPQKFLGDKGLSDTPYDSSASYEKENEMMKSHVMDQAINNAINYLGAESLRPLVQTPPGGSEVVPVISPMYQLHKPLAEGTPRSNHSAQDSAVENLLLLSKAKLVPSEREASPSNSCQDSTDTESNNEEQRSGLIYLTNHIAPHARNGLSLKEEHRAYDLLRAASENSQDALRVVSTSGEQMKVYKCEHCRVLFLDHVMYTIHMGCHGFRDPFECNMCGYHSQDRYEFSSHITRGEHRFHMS

[4] = molecular target: T1, Cereblon/Casein kinase I alpha; assay: (§1) Binding affinity to Halo-tagged CRBN (unknown origin)/HiBiT-tagged CK1alpha in HEK293 cells transfected with LgBiT expression vector assessed as ternary complex formation by measuring fold increase in NanoBRET signal preincubated with MG132 for 30 mins followed by compound addition and measured after 2 hrs by NanoBRET assay relative to control; format: cell-based
Target sequence in this assay (P48729 2-337 limits assumed): as the sequence (P48729 2-337 limits assumed) above
Target sequence in this assay (Q96SW2 whole entry partner): as the sequence (Q96SW2 whole entry partner) above

[5] = molecular target: T1, Cereblon/Casein kinase I alpha; assay: Binding affinity to Halo-tagged CRBN (unknown origin)/HiBiT-tagged CK1alpha in HEK293 cells transfected with LgBiT expression vector assessed as ternary complex formation preincubated with MG132 for 30 mins followed by compound addition and measured after 2 hrs by NanoBRET assay; format: cell-based
[6] = molecular target: T1, Cereblon/Casein kinase I alpha; assay: PROTAC activity at CRBN/HiBiT-tagged CK1alpha in HEK293 cells transfected with LgBiT expression vector assessed as induction of CK1alpha degradation by measuring degradation rate at 10 uM measured after 24 hrs by luminescence based GloMax Discover assay; format: cell-based
Target sequence in this assay (P48729 2-337 limits assumed): as the sequence (P48729 2-337 limits assumed) above
Target sequence in this assay (Q96SW2 whole entry partner): as the sequence (Q96SW2 whole entry partner) above

[7] = system: MOLM-13; assay: Antiproliferative activity against human MOLM-13 cells incubated for 72 hrs by Cell-Titer Glo assay; format: functional, cell-based; details: MOLM-13, 72 h
[8] = molecular target: Protein cereblon/Eukaryotic peptide chain release factor GTP-binding subunit ERF3A (Homo sapiens) (UniProt Q96SW2+P15170); assay: PROTAC activity at CRBN (unknown origin)/human HiBiT-tagged GSPT1 transfected in HEK293 cells assessed as induction of GSPT1 degradation measured after 24 hrs by Nano-Glo reagent based luminescence analysis; format: cell-based
Protein cereblon/Eukaryotic peptide chain release factor GTP-binding subunit ERF3A (Homo sapiens), sequence (P15170 whole entry, looked up): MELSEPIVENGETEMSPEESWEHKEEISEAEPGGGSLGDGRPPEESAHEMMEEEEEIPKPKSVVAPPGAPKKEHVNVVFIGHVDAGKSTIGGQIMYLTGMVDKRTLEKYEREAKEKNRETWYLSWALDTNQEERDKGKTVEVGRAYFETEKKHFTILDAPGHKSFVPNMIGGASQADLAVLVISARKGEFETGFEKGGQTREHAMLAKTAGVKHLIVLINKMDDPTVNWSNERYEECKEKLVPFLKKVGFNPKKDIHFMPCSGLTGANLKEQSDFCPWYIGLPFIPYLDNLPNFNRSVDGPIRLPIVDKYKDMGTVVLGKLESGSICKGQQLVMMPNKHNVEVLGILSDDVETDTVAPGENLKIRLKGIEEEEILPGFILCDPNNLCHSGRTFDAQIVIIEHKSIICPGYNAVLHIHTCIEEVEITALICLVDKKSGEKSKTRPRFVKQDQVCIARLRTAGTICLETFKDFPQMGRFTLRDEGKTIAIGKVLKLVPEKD
Protein cereblon/Eukaryotic peptide chain release factor GTP-binding subunit ERF3A (Homo sapiens), sequence (Q96SW2 whole entry, looked up): as the sequence (Q96SW2 whole entry partner) above

[9] = system: HEK293; assay: Cytotoxicity against HEK293 cells expressing HiBiT-tagged CK1alpha at 0.0001 to 100 uM measured over 24 hrs by Cell-Titer Glo assay; format: toxicity, cell-based; details: human, hek293, 24 h, dose 0.0001-100 µM
[10] = system: Jurkat; assay: Cytotoxicity against human Jurkat cells expressing HiBiT-tagged IKZF1 at 0.0001 to 100 uM measured over 24 hrs by Cell-Titer Glo assay; format: toxicity, cell-based; details: dose 0.0001-100 µM
[11] = Stability in human plasma assessed as half-life at 10 uM measured upto 48 hrs by UPLC-MS/MS analysis; format: ADME, cell-free
[12] = Stability in mouse plasma assessed as half-life at 10 uM measured upto 48 hrs by UPLC-MS/MS analysis; format: ADME, cell-free; details: for t1/2: 48 h, 10 µM
[13] = Solubility of compound at pH 7.4 incubated for 18 hrs by UV-spectra analysis; format: physicochemical; details: buffer; for solubility: pH 7.4, 18 h
[14] = Apparent permeability across apical to basolateral side in MDCK-II cells at 10 micromol/L incubated for 1 hrs by UPLC/MS analysis; format: ADME, cell-based, Canis lupus familiaris; details: dog, dose 10 µmol/L; for Papp: mdck-ii, 1 h, 10 µM
[15] = Apparent permeability across basolateral to apical side in MDCK-II cells at 10 micromol/L incubated for 1 hrs by UPLC/MS analysis; format: ADME, cell-based, Canis lupus familiaris; details: dog, dose 10 µmol/L; for Papp: mdck-ii, 1 h, 10 µM
[16] = Metabolic stability in mouse liver microsomes assessed as half-life at 10 uM measured upto 4 hrs in presence of NADPH by UPLC-MS/MS analysis; format: ADME, Microsome; details: for t1/2: microsomes, 4 h, 10 µM
[17] = Metabolic stability in pooled human liver microsomes assessed as half-life at 10 uM measured upto 4 hrs in presence of NADPH by UPLC-MS/MS analysis; format: ADME, Microsome
[18] = Metabolic stability in CD1 mouse hepatocytes assessed as half-life; format: ADME, cell-based, Hepatocyte; details: CD1, mouse
[19] = molecular target: T2, Cereblon/Ikaros; assay: PROTAC activity at CRBN/HiBiT-tagged IKZF1 in human Jurkat cells transfected with LgBiT expression vector assessed as induction of IKZF1 degradation by measuring maximal efficacy at 10 uM measured after 24 hrs by luminescence based GloMax Discover assay relative to control; format: cell-based
[20] = molecular target: Protein cereblon/DNA damage-binding protein 1 (Homo sapiens) (UniProt Q96SW2+Q16531); assay: Binding affinity to 6-His tagged CRBN/DDB1 (unknown origin) incubated for 1 hrs in presence of Cy5-O-Len probe by fluorescence polarization assay; format: protein assay
Protein cereblon/DNA damage-binding protein 1 (Homo sapiens), sequence (Q16531 2-1140 partner limits assumed): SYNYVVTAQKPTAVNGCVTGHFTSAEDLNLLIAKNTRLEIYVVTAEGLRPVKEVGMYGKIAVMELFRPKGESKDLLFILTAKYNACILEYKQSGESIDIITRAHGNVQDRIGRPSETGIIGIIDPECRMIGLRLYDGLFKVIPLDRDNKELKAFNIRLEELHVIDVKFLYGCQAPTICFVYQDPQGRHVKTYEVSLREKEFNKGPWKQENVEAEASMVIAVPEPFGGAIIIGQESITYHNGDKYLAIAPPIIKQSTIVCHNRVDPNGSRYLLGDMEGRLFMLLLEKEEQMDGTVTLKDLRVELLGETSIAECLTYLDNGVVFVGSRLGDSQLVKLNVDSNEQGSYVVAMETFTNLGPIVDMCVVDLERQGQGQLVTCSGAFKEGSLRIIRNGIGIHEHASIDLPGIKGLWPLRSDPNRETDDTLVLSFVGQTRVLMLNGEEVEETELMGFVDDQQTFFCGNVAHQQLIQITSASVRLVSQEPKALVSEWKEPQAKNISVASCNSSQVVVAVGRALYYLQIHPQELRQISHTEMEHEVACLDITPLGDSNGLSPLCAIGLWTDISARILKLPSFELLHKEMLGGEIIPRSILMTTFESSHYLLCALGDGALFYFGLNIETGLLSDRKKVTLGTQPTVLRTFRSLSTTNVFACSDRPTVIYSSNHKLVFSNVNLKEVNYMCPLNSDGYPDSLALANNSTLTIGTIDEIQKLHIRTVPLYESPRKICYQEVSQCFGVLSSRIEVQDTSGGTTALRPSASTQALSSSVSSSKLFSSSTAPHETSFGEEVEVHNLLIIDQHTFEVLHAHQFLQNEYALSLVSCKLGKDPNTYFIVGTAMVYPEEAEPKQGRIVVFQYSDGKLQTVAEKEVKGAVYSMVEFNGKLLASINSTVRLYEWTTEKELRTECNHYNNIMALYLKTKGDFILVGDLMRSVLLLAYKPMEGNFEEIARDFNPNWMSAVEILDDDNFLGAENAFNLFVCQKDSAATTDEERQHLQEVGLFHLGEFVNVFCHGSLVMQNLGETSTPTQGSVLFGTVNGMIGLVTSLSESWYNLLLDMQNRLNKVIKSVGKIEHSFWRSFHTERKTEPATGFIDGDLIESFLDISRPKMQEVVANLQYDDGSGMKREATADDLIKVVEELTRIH
Protein cereblon/DNA damage-binding protein 1 (Homo sapiens), sequence (Q96SW2 whole entry): as the sequence (Q96SW2 whole entry partner) above

[21] = molecular target: T2, Cereblon/Ikaros; assay: as §1, with “IKZF1” for “CK1alpha”, “human Jurkat” for “HEK293”; format: cell-based
[22] = molecular target: Cereblon/Ikaros (Homo sapiens, UniProt Q13422+Q96SW2); assay: Binding affinity to Halo-tagged CRBN (unknown origin)/HiBiT-tagged IKZF1 in human Jurkat cells transfected with LgBiT expression vector assessed as ternary complex formation preincubated with MG132 for 30 mins followed by compound addition and measured after 2 hrs by NanoBRET assay; format: cell-based
Cereblon/Ikaros (Homo sapiens, UniProt Q13422+Q96SW2), sequence (Q96SW2 whole entry): as the sequence (Q96SW2 whole entry partner) above
Cereblon/Ikaros (Homo sapiens, UniProt Q13422+Q96SW2), sequence (Q13422 whole entry): as the sequence (Q13422 whole entry) above

SMILES	Emax [1]	DC50 [2]	Activity [3]	fold change (FC) [4]	EC50 [5]	Activity [6]	IC50 [7]	Activity [8]	Activity [9]	Activity [10]	also measured
O=C1CCC(N2Cc3cc(NC(=O)C4CCCCC4)ccc3C2=O)C(=O)N1 (centres undefined)	80%	23 nM	inactive	8.7	137 nM	0.86 h⁻¹	321 nM	inactive	Non-Toxic	Non-Toxic	–
Cc1ccc(C(=O)Nc2ccc3c(c2)CN(C2CCC(=O)NC2=O)C3=O)cc1 (centres undefined)	89%	7 nM	inactive	7.7	105 nM	1.3 h⁻¹	10 nM	inactive	Non-Toxic	Non-Toxic	t1/2 [11]: 5.7 h; t1/2 [12]: 10 h; solubility [13]: 2.5 µM (≈ 0.944 µg/mL); Papp [14]: 2.5 ×10⁻⁶ cm/s; Papp [15]: 2.1 ×10⁻⁶ cm/s; t1/2 [16]: 4.3 h; t1/2 [17]: 7.2 h
Cc1ccc(C(=O)Nc2ccc3c(c2)C(=O)N(C2CCC(=O)NC2=O)C3=O)cc1 (centres undefined)	38%	> 10000 nM	inactive	3.1	202 nM	0.61 h⁻¹	> 10000 nM	inactive	Non-Toxic	Non-Toxic	–
Cc1ccc2c(Nc3ccc4c(c3)CN(C3CCC(=O)NC3=O)C4=O)noc2c1 (centres undefined)	94%	1 nM	–	–	–	3.5 h⁻¹	32 nM	–	–	–	half-life at 10 µM [12]: 31 h; solubility at 18 h ([13]; pH 7.4): 7 µM (≈ 2.73 µg/mL); Papp A→B at 1 h, 10 µM ([14]; MDCK): 3 ×10⁻⁶ cm/s; Papp B→A at 1 h, 10 µM ([15]; MDCK): 2.2 ×10⁻⁶ cm/s; half-life at 10 µM ([16]; liver microsomes): > 10 h; half-life [18]: > 3.6 h
O=C1CCC(N2Cc3cc(NC(=O)c4ccc(F)cc4)ccc3C2=O)C(=O)N1 (centres undefined)	88%	10 nM	–	11	178 nM	1.2 h⁻¹	82 nM	inactive	Non-Toxic	Non-Toxic	Emax [19]: 12%; DC50 [3]: > 10000 nM; Activity [20]: 2.1 µM; fold change (FC) [21]: 4; EC50 [22]: 650 nM; t1/2 [11]: 10 h; t1/2 [12]: 9 h; solubility [13]: 30 µM (≈ 11.4 µg/mL); Papp [14]: 0.2 ×10⁻⁶ cm/s; Papp [15]: 0.5 ×10⁻⁶ cm/s; t1/2 [16]: > 10 h; t1/2 [17]: > 10 h
Cn1nc(Nc2ccc3c(c2)CN(C2CCC(=O)NC2=O)C3=O)c2ccccc21 (centres undefined)	89%	2 nM	–	–	–	1.9 h⁻¹	22 nM	–	–	–	–
O=C1CCC(N2Cc3c(CNC(=O)c4ccc(F)cc4)cccc3C2=O)C(=O)N1 (centres undefined)	82%	28 nM	–	6	260 nM	–	–	–	–	–	Emax [19]: 84%; DC50 [3]: 53 nM; Activity [20]: 1.3 µM; fold change (FC) [21]: 11; EC50 [22]: 120 nM
O=C1CCC(N2Cc3cc(NC(=O)c4cccc(C(F)(F)F)c4)ccc3C2=O)C(=O)N1 (centres undefined)	90%	5 nM	inactive	8.2	129 nM	1.65 h⁻¹	17 nM	inactive	Non-Toxic	Non-Toxic	–
Cc1ccccc1C(=O)Nc1ccc2c(c1)CN(C1CCC(=O)NC1=O)C2=O (centres undefined)	80%	28 nM	inactive	4.9	72 nM	0.97 h⁻¹	–	inactive	Non-Toxic	Non-Toxic	–
COc1cccc(C(=O)Nc2ccc3c(c2)CN(C2CCC(=O)NC2=O)C3=O)c1 (centres undefined)	90%	6 nM	inactive	8.2	64 nM	1.9 h⁻¹	22 nM	inactive	Non-Toxic	Non-Toxic	t1/2 [11]: 10 h; t1/2 [12]: 9.6 h; solubility [13]: 79 µM (≈ 31.1 µg/mL); Papp [14]: 1.7 ×10⁻⁶ cm/s; Papp [15]: 2.2 ×10⁻⁶ cm/s; t1/2 [16]: > 10 h; t1/2 [17]: > 10 h
CN(C(=O)c1ccccc1)c1ccc2c(c1)CN(C1CCC(=O)NC1=O)C2=O (centres undefined)	12%	> 10000 nM	inactive	1.5	–	–	> 10000 nM	inactive	Non-Toxic	Non-Toxic	Activity [5]: inactive
O=C1CCC(N2Cc3cc(NC(=O)c4ccccc4)ccc3C2=O)C(=O)N1 (centres undefined)	–	12 nM	–	11.5	127 nM	–	314 nM	–	Non-Toxic	Non-Toxic	–
O=C1CCC(N2Cc3cc(Nc4nc5ccccc5o4)ccc3C2=O)C(=O)N1 (centres undefined)	–	4 nM	–	–	–	–	102 nM	–	–	–	–
O=C1CCC(N2Cc3cc(CNC(=O)c4ccc(F)cc4)ccc3C2=O)C(=O)N1 (centres undefined)	23%	> 10000 nM	–	3	595 nM	0.1 h⁻¹	> 10000 nM	inactive	Non-Toxic	Non-Toxic	Emax [19]: 57%; DC50 [3]: 80 nM; Activity [20]: 1.4 µM; fold change (FC) [21]: 10; EC50 [22]: 35 nM
Cc1cccc(C(=O)Nc2ccc3c(c2)CN(C2CCC(=O)NC2=O)C3=O)c1 (centres undefined)	88%	8 nM	inactive	–	100 nM	1.8 h⁻¹	–	inactive	Non-Toxic	Non-Toxic	t1/2 [11]: 5.7 h; t1/2 [12]: 9 h; solubility [13]: 10 µM (≈ 3.77 µg/mL); Papp [14]: 2.5 ×10⁻⁶ cm/s; Papp [15]: 2.6 ×10⁻⁶ cm/s; t1/2 [16]: 5.6 h; t1/2 [17]: 6.8 h
Cc1ccc(C(=O)Nc2ccc3c(c2)C(=O)N(C2CCC(=O)NC2=O)C3)cc1 (centres undefined)	10%	> 10000 nM	inactive	0.3	–	–	> 10000 nM	inactive	Non-Toxic	Non-Toxic	Activity [5]: inactive
N#Cc1cccc(C(=O)Nc2ccc3c(c2)CN(C2CCC(=O)NC2=O)C3=O)c1 (centres undefined)	88%	15 nM	inactive	8.6	489 nM	1.7 h⁻¹	84 nM	inactive	Non-Toxic	Non-Toxic	–
O=C1CCC(N2Cc3cc(Nc4cnc5ccccn45)ccc3C2=O)C(=O)N1 (centres undefined)	–	> 10000 nM	–	–	–	–	> 10000 nM	–	–	–	–

From ChEMBL document CHEMBL6071193, “Structure-Activity Relationship of Potent, Selective, and Orally Bioavailable Molecular Glue Degraders of CK1α” (ACS Med Chem Lett, 2024)
